Data: US6046228A, “Anti-viral pharmaceutical compositions containing saturated 1,2-dithiaheterocyclic compounds and uses thereof” (priority 1999, dated 2000)

Columns and labels:
HIV-1 p7NC protein = molecular target: T1, HIV-1 p7NC protein (Human immunodeficiency virus type 1 group M subtype B, UniProt P04591); test: TSQ zinc release assay from p7NC; type: biochemical; conditions: 10 μM, 2 hours, FIG. 1(B), in words
T1 construct: recombinant HIV-1 p7NC protein
Description: Fluorescence measurements of the Trp^37 residue in the C-terminal zinc finger of the recombinant HIV-1 p7NC protein were performed as previously described (Rice et al., Science 270:1194, 1995). The p7NC protein was prepared at 20 μg/ml in 10 mM sodium phosphate buffer (pH 7.0), treated with 25 μM of each compound, then after indicated time intervals the samples were diluted 1/10 in 10 mM sodium phosphate buffer (pH 7.0) and the fluorescence intensity measured. The excitation and emission wavelengths utilized with the Shimadzu RF5000 spectrofluorimeter were 280 nm and 351 nm, respectively. In an alternate assay, the zinc-selective fluorescent probe N-(6-methoxy-8quinolyl-)-p-toluenesulfonamide (TSQ, Molecular Probes, Eugene, Oreg.) originally described by Fredrickson (J. Neurosci. Meth. 20:91, 1987) was utilized to measure zinc released from the p7NC protein in vitro. Briefly, 2 μM recombinant HIV-1 p7NC protein in 10 mM sodium phosphate buffer, pH 7.0, 10% glycerol was treated with 10 μM 624151 ([…] total volume in 96-well plates), and the time-dependent increase in fluorescence was measured on a Labsystems Fluoroskan II (360 nm excitation filter and 460 nm emission filter) over a period of 2 hours. […] Virus pellets were resolved by non-reducing SDS-PAGE and analyzed by immunoblot using monospecific rabbit antisera to the purified p7NC protein. […]

HIV-1RF virions = test: viral inactivation assay, HeLa-CD4-LTR-βgal cells; type: cell-based; conditions: FIG. 2(B), in words
Description: HeLa-CD4-LTR-βgal cells (1.5×10^4 /well) were plated in 200 μl volume in flat bottom 96-well microtiter plates for 24 hours, after which the fluid was removed and replaced with drug-treated samples. The HIV-1RF stock was treated with various concentrations NSC 624151 for 2 hours at 37° C., followed by centrifugation (18,000×g for 1 hour at 4° C.) to remove compound from the virus, preparation of serial two-fold dilutions and plating of 200 μl of each dilution in triplicate onto the cell monolayer. The cultures were then incubated for 4 additional days, and monolayers were then fixed for 5 minutes with 2% formaldehyde/2% glutaraldehyde, washed twice with cold PBS and then stained with X-gal substrate for 24 hours at 37° C. The number of blue-stained cells (each indicating a single infectious unit) were then counted in each well and the number of infectious units per ml (mean±SD) of sample were determined values calculated.

Pr55^gag = test: immunoblot of viral proteins in U1 cells (Gag precursor processing); type: cell-based, HIV-1; conditions: FIG. 3(B), in words
Description: U1 cells latently infected with two copies of HIV-1 proviral DNA per cell (Clous et al., J. Immunol. 142: 431-438, (1989)) were treated with 5 ng/ml tumor necrosis factor-α(TNF-α) for 24 hours to stimulate production of HIV-1 virions, after which various concentrations of 624151 were added to the cultures and incubated for an additional 48 hours. Cultures were analyzed for cell viability by the XTT reduction assay and cells were counted and scored for viability by trypan blue exclusion. Cells pellets were lysed (0.5% Triton X-100, 300 mM NaCl, 50 mM Tris-HCl, pH 7.6, 10 μg/ml each of Leupeptin and aprotinin (Boehringer Mannheim), 1.8 mg/ml iodoacetamide (Sigma Chemical Co., St. Louis, Mo.) and 1.0 mg/ml the protease inhibitor Pefabloc SC (Boehringer Mannheim at 4° C. for 15 min. and then quantitated for viral p24 content by ELISA. Cell-free supernatant samples were collected and analyzed for virus content by p24 ELISA, and infectivity in cultures of 174xCEM cells. Briefly, serial 1/2 dilutions of the supernatant were placed with 5×10^3 174xCEM cells and cultured for 7 days, cell supernatants were analyzed for viral p24 content, and the number of infectious units/ml calculated. In addition, cell free supernatants were centrifuged at 17,000×g for 1 hour at 4° C. to collect virion pellets. […]

In the case of `O=S1(=O)C[C@H](O)[C@H](O)CS1` (relative stereo) [NSC 624151, cis-1,1-dioxo[1,2]dithiane-4,5-diol], the “zinc ejection from p7NC measured with TSQ” value (HIV-1 p7NC protein) is reported as “promote zinc ejection from the p7NC protein in vitro was confirmed”, the “inactivation of viral infectivity” value (HIV-1RF virions) is reported as “enter intact virions and inactivate the viral infectivity” and the “inactivation of viral infectivity” value (HIV-1RF virions; listed as 624151) is reported as “concentration-dependant inactivation of viral infectivity”. The “Pr55^gag processing to p41, p24, p9 and p7 proteins” value (Pr55^gag) was “prevents processing of precursor proteins to mature viral proteins” and the “Pr55^gag processing to p41, p24, p9 and p7 proteins” value (Pr55^gag; listed as 624151) was “decrease in Pr55^gag processing to the p41, p24, p9 and p7 proteins”.
